Measured values reported in PMC6099728, “Investigation of Hydro-Lipophilic Properties of N-Alkoxyphenylhydroxynaphthalenecarboxamides” (Molecules : A Journal of Synthetic Chemistry and Natural …, 2018).

Test: Lipophilicity determination by RP-HPLC (capacity factor k / logk)
Format: physicochemical
Details: for logk: isocratic MeOH 72%/H2O 28%, C18 column, 40 °C; for πB (distributive parameter π calculated from logk) / πC (distributive parameter π calculated from logk) / πA (distributive parameter π calculated from logk): π = logkS − logkU; for πB (distributive parameter π calculated from logk): unsubstituted 1b as reference; for πC (distributive parameter π calculated from logk): unsubstituted 1c as reference; for πA (distributive parameter π calculated from logk): unsubstituted 1a as reference
Excerpt: A HPLC separation module Waters Alliance 2695 XE equipped with a Waters Dual Absorbance Detector 2486 (Waters Corp., Milford, MA, USA) was used. A chromatographic column Symmetry® C18 5 µm, 4.6 × 250 mm, Part No. W21751W016 (Waters Corp.) was used. The HPLC separation process was monitored by Empower® 3 Chromatography Manager Software (Waters Corp.). Isocratic elution by a mixture of MeOH p.a. (72%) and H2O-HPLC Mili-Q grade (28%) as a mobile phase was used. The total flow of the column was 1.0 mL/min, the injection was 20 μL, the column temperature was 40 °C, and the sample temperature was 10 °C. A detection wavelength of 210 nm was chosen. The KI methanolic solution was used for the determination of dead time (tD). Retention times (tR) were measured in minutes. Capacity factors k were calculated using the Empower® 3 Chromatography Manager Software according to the formula k = (tR − tD)/tD, where tR is the retention time of the solute, while tD is the dead time obtained using an unretained analyte. Each experiment was repeated three times. Logk, which was calculated from the capacity factor k, is used as the lipophilicity index converted to the logP scale.

logk (series B) | πB (distributive parameter π calculated from logk) (series B) | logk (series C) | πC (distributive parameter π calculated from logk) (series C) | logk (series A) | πA (distributive parameter π calculated from logk) (series A) | SMILES
0.6239 | −0.15 |  |  |  |  | COc1ccc(NC(=O)c2ccc3ccccc3c2O)cc1 [4b]
1.3103 | 0.74 |  |  |  |  | CCCOc1ccccc1NC(=O)c1ccc2ccccc2c1O [8b]
 |  | 0.6639 | 0.73 |  |  | CCCOc1ccccc1NC(=O)c1c(O)ccc2ccccc12 [8c]
 |  |  |  | 0.3982 | 0.09 | COc1ccccc1NC(=O)c1cc2ccccc2cc1O [2a]
1.1291 | 0.95 |  |  |  |  | CCC(C)Oc1cccc(NC(=O)c2ccc3ccccc3c2O)c1 (stereo not drawn) [18b]
 |  | 0.4604 | 1.05 |  |  | CCCCOc1ccc(NC(=O)c2c(O)ccc3ccccc23)cc1 [13c]
 |  |  |  | 0.7956 | 1.00 | CCC(C)Oc1ccccc1NC(=O)c1cc2ccccc2cc1O (stereo not drawn) [17a]
 |  | 0.6145 | 0.66 |  |  | CC(C)Oc1ccccc1NC(=O)c1c(O)ccc2ccccc12 [14c]
 |  |  |  | 0.8670 | 0.95 | CCC(C)Oc1cccc(NC(=O)c2cc3ccccc3cc2O)c1 (stereo not drawn) [18a]
1.0940 | 0.40 |  |  |  |  | CCOc1ccccc1NC(=O)c1ccc2ccccc2c1O [5b]
 |  |  |  | 0.6017 | 0.59 | CC(C)Oc1ccc(NC(=O)c2cc3ccccc3cc2O)cc1 [16a]
0.6755 | 0 |  |  |  |  | O=C(Nc1ccccc1)c1ccc2ccccc2c1O [1b]
 |  | 0.1175 | 0.34 |  |  | CCOc1cccc(NC(=O)c2c(O)ccc3ccccc23)c1 [6c]
 |  |  |  | 0.8961 | 1.08 | CCCCOc1ccc(NC(=O)c2cc3ccccc3cc2O)cc1 [13a]
 |  | 0.2518 | 0.05 |  |  | COc1ccccc1NC(=O)c1c(O)ccc2ccccc12 [2c]
0.9355 | 0.61 |  |  |  |  | CC(C)Oc1cccc(NC(=O)c2ccc3ccccc3c2O)c1 [15b]
1.2088 | 1.02 |  |  |  |  | CCCCOc1cccc(NC(=O)c2ccc3ccccc3c2O)c1 [12b]
0.8353 | 0.36 |  |  |  |  | CCOc1cccc(NC(=O)c2ccc3ccccc3c2O)c1 [6b]
1.4424 | 1.00 |  |  |  |  | CCC(C)Oc1ccccc1NC(=O)c1ccc2ccccc2c1O (stereo not drawn) [17b]

logk (series B) | πB (distributive parameter π calculated from logk) (series B) | logk (series C) | πC (distributive parameter π calculated from logk) (series C) | logk (series A) | πA (distributive parameter π calculated from logk) (series A) | SMILES
0.9588 | 0.75 |  |  |  |  | CCCOc1ccc(NC(=O)c2ccc3ccccc3c2O)cc1 [10b]
 |  | 0.3209 | 0.65 |  |  | CCCOc1cccc(NC(=O)c2c(O)ccc3ccccc23)c1 [9c]
1.0518 | 0.94 |  |  |  |  | CCC(C)Oc1ccc(NC(=O)c2ccc3ccccc3c2O)cc1 (stereo not drawn) [19b]
1.1537 | 1.08 |  |  |  |  | CCCCOc1ccc(NC(=O)c2ccc3ccccc3c2O)cc1 [13b]
 |  |  |  | 0.7221 | 0.74 | CCCOc1ccccc1NC(=O)c1cc2ccccc2cc1O [8a]
 |  | 0.7927 | 0.98 |  |  | CCC(C)Oc1ccccc1NC(=O)c1c(O)ccc2ccccc12 (stereo not drawn) [17c]
 |  |  |  | 0.5570 | 0.40 | CCOc1ccccc1NC(=O)c1cc2ccccc2cc1O [5a]
 |  | 0.2214 | 0.57 |  |  | CC(C)Oc1cccc(NC(=O)c2c(O)ccc3ccccc23)c1 [15c]
 |  | 0.8578 | 1.04 |  |  | CCCCOc1ccccc1NC(=O)c1c(O)ccc2ccccc12 [11c]
1.0215 | 0.69 |  |  |  |  | CCCOc1cccc(NC(=O)c2ccc3ccccc3c2O)c1 [9b]
 |  |  |  | 0.9136 | 1.08 | CCCCOc1ccccc1NC(=O)c1cc2ccccc2cc1O [11a]
 |  | −0.1149 | −0.19 |  |  | COc1ccc(NC(=O)c2c(O)ccc3ccccc23)cc1 [4c]
 |  |  |  | 0.3927 | 0 | O=C(Nc1ccccc1)c1cc2ccccc2cc1O [1a]
0.8648 | 0.59 |  |  |  |  | CC(C)Oc1ccc(NC(=O)c2ccc3ccccc3c2O)cc1 [16b]
 |  | 0.3621 | 0.91 |  |  | CCC(C)Oc1ccc(NC(=O)c2c(O)ccc3ccccc23)cc1 (stereo not drawn) [19c]
0.7700 | 0.15 |  |  |  |  | CCOc1ccc(NC(=O)c2ccc3ccccc3c2O)cc1 [7b]
 |  | 0.5161 | 1.00 |  |  | CCCCOc1cccc(NC(=O)c2c(O)ccc3ccccc23)c1 [12c]
1.2556 | 0.66 |  |  |  |  | CC(C)Oc1ccccc1NC(=O)c1ccc2ccccc2c1O [14b]
 |  |  |  | 0.6963 | 0.75 | CCCOc1ccc(NC(=O)c2cc3ccccc3cc2O)cc1 [10a]

logk (series B) | πB (distributive parameter π calculated from logk) (series B) | logk (series C) | πC (distributive parameter π calculated from logk) (series C) | logk (series A) | πA (distributive parameter π calculated from logk) (series A) | SMILES
 |  | 0.4129 | 0.91 |  |  | CCC(C)Oc1cccc(NC(=O)c2c(O)ccc3ccccc23)c1 (stereo not drawn) [18c]
0.6828 | 0.04 |  |  |  |  | COc1cccc(NC(=O)c2ccc3ccccc3c2O)c1 [3b]
 |  | 0.1106 | 0.02 |  |  | COc1cccc(NC(=O)c2c(O)ccc3ccccc23)c1 [3c]
 |  |  |  | 0.3374 | −0.15 | COc1ccc(NC(=O)c2cc3ccccc3cc2O)cc1 [4a]
 |  | 0.0542 | 0.27 |  |  | CCOc1ccc(NC(=O)c2c(O)ccc3ccccc23)cc1 [7c]
 |  |  |  | 0.7672 | 0.69 | CCCOc1cccc(NC(=O)c2cc3ccccc3cc2O)c1 [9a]
1.5122 | 1.08 |  |  |  |  | CCCCOc1ccccc1NC(=O)c1ccc2ccccc2c1O [11b]
 |  |  |  | 0.9711 | 1.02 | CCCCOc1cccc(NC(=O)c2cc3ccccc3cc2O)c1 [12a]
 |  |  |  | 0.4916 | 0.15 | CCOc1ccc(NC(=O)c2cc3ccccc3cc2O)cc1 [7a]
 |  |  |  | 0.6360 | 0.66 | CC(C)Oc1ccccc1NC(=O)c1cc2ccccc2cc1O [14a]
 |  |  |  | 0.7977 | 0.09 | CCC(C)Oc1ccc(NC(=O)c2cc3ccccc3cc2O)cc1 (stereo not drawn) [19a]
0.8593 | 0.09 |  |  |  |  | COc1ccccc1NC(=O)c1ccc2ccccc2c1O [2b]
 |  | 0.2622 | 0.72 |  |  | CCCOc1ccc(NC(=O)c2c(O)ccc3ccccc23)cc1 [10c]
 |  | 0.1619 | 0.55 |  |  | CC(C)Oc1ccc(NC(=O)c2c(O)ccc3ccccc23)cc1 [16c]
 |  |  |  | 0.6723 | 0.61 | CC(C)Oc1cccc(NC(=O)c2cc3ccccc3cc2O)c1 [15a]
 |  |  |  | 0.4055 | 0.04 | COc1cccc(NC(=O)c2cc3ccccc3cc2O)c1 [3a]
 |  |  |  | 0.5682 | 0.36 | CCOc1cccc(NC(=O)c2cc3ccccc3cc2O)c1 [6a]
 |  | −0.0581 | 0 |  |  | O=C(Nc1ccccc1)c1c(O)ccc2ccccc12 [1c]
 |  | 0.4759 | 0.39 |  |  | CCOc1ccccc1NC(=O)c1c(O)ccc2ccccc12 [5c]
